Results as given in publication PMC9338265, “Pathogen-selective killing by guanylate-binding proteins as a molecular mechanism leading to inflammasome signaling” (Nature Communications, 2022).
Non-standard residues stand in square brackets, D forms with d. No end group written: not given here. *: point of attachment. FITC = O=C1OC2(c3ccc(O)cc3Oc3cc(O)ccc32)c2ccc(NC(=S)*)cc21; Ahx = NCCCCCC(=O)O

B1: mGBP1 (protein, UniProt Q01514 1-589, looked up)
Guanylate-binding protein 1: MASEIHMSEPMCLIENTEAQLVINQEALRILSAITQPVVVVAIVGLYRTGKSYLMNKLAGKRTGFSLGSTVQSHTKGIWMWCVPHPKKAGQTLVLLDTEGLEDVEKGDNQNDCWIFALAVLLSSTFIYNSIGTINQQAMDQLHYVTELTDLIKSKSSPDQSDVDNSANFVGFFPIFVWTLRDFSLDLEFDGESITPDEYLETSLALRKGTDENTKKFNMPRLCIRKFFPKRKCFIFDRPGDRKQLSKLEWIQEDQLNKEFVEQVAEFTSYIFSYSGVKTLSGGITVNGPRLKSLVQTYVSAICSGELPCMENAVLTLAQIENSAAVQKAITYYEEQMNQKIHMPTETLQELLDLHRTCEREAIEVFMKNSFKDVDQKFQEELGAQLEAKRDAFVKKNMDMSSAHCSDLLEGLFAHLEEEVKQGTFYKPGGYYLFLQRKQELEKKYIQTPGKGLQAEVMLRKYFESKEDLADTLLKMDQSLTEKEKQIEMERIKAEAAEAANRALAEMQKKHEMLMEQKEQSYQEHMKQLTEKMEQERKELMAEQQRIISLKLQEQERLLKQGFQNESLQLRQEIEKIKNMPPPRSCTIL

Experiments:
N. meningitidis [1] = assay: Bacterial viability assay (CFU or O.D.); format: cell-based, Neisseria meningitidis; conditions: 6 h
F. novicida [2] = test system: F. novicida
primary mouse BMDMs = assay: Cytotoxicity (SYTOX incorporation, LDH release); conditions: 10 µg/ml; IncuCyte live imaging; LDH after 24 h
[3] = test system: African green monkey kidney cells Vero; assay: Cytotoxicity (SYTOX incorporation, LDH release); conditions: 10 µg/ml; IncuCyte live imaging; LDH after 24 h
[4] = test system: human intestinal epithelial cells HT29; assay: Cytotoxicity (SYTOX incorporation, LDH release); conditions: 10 µg/ml; IncuCyte live imaging; LDH after 24 h
F. novicida [5] = format: cell-based, Francisella novicida
[6] = test system: human embryonic kidney cells HEK293; assay: Cytotoxicity (SYTOX incorporation, LDH release); conditions: 10 µg/ml; IncuCyte live imaging; LDH after 24 h
F. novicida [7] = format: cell-based, Francisella novicida; remark: listed apart in the source
E. coli [8] = assay: Bacterial viability assay (CFU); format: cell-based, Escherichia coli; conditions: 6 h
N. meningitidis [9] = assay: Peptide and protein binding assay with SYTOX staining; format: cell-based, Neisseria meningitidis; conditions: for Localization to and killing of N. meningitidis (SYTOX): 10 µg/mL FITC-peptide, 1 h or 6 h
F. novicida [10] = format: cell-based, Francisella novicida; remark: listed apart in the source
E. coli [11] = assay: Peptide and protein binding assay with SYTOX staining; format: cell-based, Escherichia coli
F. novicida [12] = format: binding, Francisella novicida
[13] = test system: isogenic lpxA mutant of N. meningitidis, which lacks LOS; assay: Bacterial viability assay (O.D.); format: cell-based, Neisseria meningitidis; conditions: mGBP1 protein at 0.4, 4 or 40 µM, 6 h; mutant lacking LOS

| Molecule | Viability of F. novicida (percentage of CFU in relation to solvent control) (F. novicida [2]) | Cytotoxicity, SYTOX incorporation or LDH release, BMDMs (primary mouse BMDMs) | Cytotoxicity, SYTOX incorporation or LDH release, Vero [3] | Cytotoxicity, SYTOX incorporation or LDH release, HT29 [4] | SYTOX positive F. novicida, flow cytometry plot (F. novicida [5]) [%] | Cytotoxicity, SYTOX incorporation or LDH release, HEK293 [6] | further results |
| --- | --- | --- | --- | --- | --- | --- | --- |
| FYHTGKSYLMNKLAGKQKGFSL [GBP1^46–67] | little or no antimicrobial activity | – | – | – | – | – | Viability of N. meningitidis (percentage of CFU in relation to solvent control) (N. meningitidis [1]; peptide at 10 µg/ml): little or no antimicrobial activity |
| GTDENTKKFNMPRLCIRKFFPKRKCFIFDR [GBP1^209–238] | only GBP1^28–67 and WLBU2 exhibited | None of the peptides exhibited cytotoxicity | None of the peptides exhibited cytotoxicity | None of the peptides exhibited cytotoxicity | 9.2 | None of the peptides exhibited cytotoxicity | – |
| IRILEQIAQPLVVVAIVGLYRTGKSYLMNRLAGRNHGFSL [GBP3^22–61] | bacterial killing in a dose-dependent manner | – | – | – | – | – | Morphology of F. novicida by SEM and TEM (F. novicida [7]): bacterial membrane damage and bacteriolysis of F. novicida |
| LDILSAIQNPV [GBP1^28–38] | killed F. novicida and N. meningitidis similar to that observed for GBP1^28–67 | – | – | – | – | – | Viability of N. meningitidis (percentage of CFU in relation to solvent control) (N. meningitidis [1]; peptide at 10 µg/ml): killed F. novicida and N. meningitidis similar to that observed for GBP1^28–67; Viability of E. coli (percentage of CFU in relation to solvent control) (E. coli [8]; peptide at 10 µg/ml): unable to kill E. coli |
| LDILSAIQNPVVVVAIVGFYHTGKSYLMNKLAGKQKGFSL [GBP1^28–67] | – | None of the peptides exhibited cytotoxicity | None of the peptides exhibited cytotoxicity | None of the peptides exhibited cytotoxicity | – | None of the peptides exhibited cytotoxicity | half maximal inhibitory concentration (IC50), viability of F. novicida (F. novicida [2]; 6 h): 5.04 µg/mL |
| LLKQGFQNESLQLRQEIEKI [GBP1^558–577] | only GBP1^28–67 and WLBU2 exhibited | None of the peptides exhibited cytotoxicity | None of the peptides exhibited cytotoxicity | None of the peptides exhibited cytotoxicity | 4.7 | None of the peptides exhibited cytotoxicity | – |
| RRWVRRVRRWVRRVVRVVRRWVRR [WLBU2, reference compound] | exhibited, in a dose-dependent manner, antibacterial activity | – | – | – | 90.7 | – | Uptake of SYTOX by F. novicida, quantification by flow cytometry (F. novicida [5]): induced a significant uptake of SYTOX; Morphology of F. novicida by SEM and TEM (F. novicida [7]): apoptosis-like blebbing and apoptosis-like bodies; Viability of E. coli (percentage of CFU in relation to solvent control) (E. coli [8]; peptide at 0.1, 1 or 10 µg/ml): led to death of the bacteria |
| TFYKPGGYYLFLQRKQELEKKYIQTPGKG [GBP1^424–452] | only GBP1^28–67 and WLBU2 exhibited | None of the peptides exhibited cytotoxicity | None of the peptides exhibited cytotoxicity | None of the peptides exhibited cytotoxicity | 11.4 | None of the peptides exhibited cytotoxicity | – |
| VVVVAIVGFYHTGKSYLMNKLAGKQKGFSL [GBP1^38–67] | little or no antimicrobial activity | – | – | – | – | – | Viability of N. meningitidis (percentage of CFU in relation to solvent control) (N. meningitidis [1]; peptide at 10 µg/ml): little or no antimicrobial activity |
| {FITC}-[Ahx]KLIKLLDRLASRSVS [FITC-control peptide, reference compound] | – | – | – | – | – | – | Localization to and killing of N. meningitidis (SYTOX) (N. meningitidis [9]): this did not occur |
| {FITC}-[Ahx]LDILSAIQNPVVVVAIVGFYHTGKSYLMNKLAGKQKGFSL [FITC-GBP1^28–67] | – | – | – | – | – | – | Localization to bacteria and uptake of SYTOX, F. novicida (F. novicida [10]): localized to and induced uptake of SYTOX in F. novicida; Localization to bacteria and uptake of SYTOX, E. coli (E. coli [11]; 10 µg/mL FITC-peptide, 1 h or 6 h): this did not occur with E. coli; Binding to F. novicida exposed to NaCl, saponin or sarcosyl before addition of peptide (F. novicida [12]): did not impair the binding; FITC signal remaining on F. novicida already bound to peptide after exposure to NaCl, saponin or sarcosyl (F. novicida [12]): loss of FITC signal; Localization to and killing of N. meningitidis (SYTOX) (N. meningitidis [9]): localized to and killed N. meningitidis |
| B1 | killed F. novicida in a dose-dependent manner | – | – | – | – | – | Localization to bacteria and uptake of SYTOX, F. novicida (F. novicida [10]): localized to and induced uptake of SYTOX in F. novicida; Viability of N. meningitidis (percentage of CFU in relation to solvent control) (N. meningitidis [1]; mGBP1 protein at 0.4, 4 or 40 µM): killed N. meningitis in a dose-dependent manner; Viability of WT N. meningitidis (percentage of O.D. in relation to solvent control) (N. meningitidis [1]; mGBP1 protein at 0.4, 4 or 40 µM, WT strain): can kill both WT and ΔlpxA mutant strains; Localization to bacteria and uptake of SYTOX, E. coli (E. coli [11]; 40 µM mGBP1 protein, 6 h): this did not occur with E. coli; Viability of N. meningitidis ΔlpxA mutant (percentage of O.D. in relation to solvent control) [13]: can kill both WT and ΔlpxA mutant strains; Morphology of F. novicida by SEM (F. novicida [7]): disruption of the membrane integrity, membrane rupture, and expulsion of intracellular content; Localization to bacteria and uptake of SYTOX, N. meningitidis (N. meningitidis [9]; 40 µM mGBP1, 6 h): localized to N. meningitidis, resulting in the uptake of SYTOX |
